Measured values: PubChem BioAssay (NCI)
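A five-concentration, 48-hour dose response in 96-well plates underlies each endpoint, interpolated linearly between surrounding concentrations. At the GI50, growth is halved. TGI: concentration producing complete growth inhibition.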

Key:
Test in all cases: DTP human tumour cell line panel, 48 h
[1] = tested on: ACHN renal
[2] = tested on: COLO 205 colon
[3] = tested on: HS 578T breast
[4] = tested on: K-562 leukemia
[5] = tested on: M14 melanoma
[6] = tested on: PC-3 prostate
[7] = tested on: RPMI-8226 leukemia
[8] = tested on: SK-MEL-28 melanoma
[9] = tested on: SNB-75 CNS
[10] = tested on: SW-620 colon

## CCOc1ccc2c(c1)C(=O)c1c-2n(CCCBr)c(=O)c2cc([N+](=O)[O-])ccc12
[1]
  GI50: 3.76 µM
  TGI: 69.7 µM
[2]
  GI50: 41.3 µM
  TGI: > 100 µM
[3]
  GI50: > 100 µM
  TGI: > 100 µM
[4]
  GI50: 50.9 µM
  TGI: > 100 µM
[5]
  GI50: 6.58 µM
  TGI: > 100 µM
[6]
  GI50: > 100 µM
  TGI: > 100 µM
[7]
  GI50: 30.7 µM
  TGI: > 100 µM
[8]
  GI50: 88.8 µM
  TGI: > 100 µM
[9]
  GI50: 33.9 µM
  TGI: > 100 µM
[10]
  GI50: 4.63 µM
  TGI: > 100 µM

## CCCCCN(CCCCC)CC(O)c1cc(Cl)ccc1OC (configuration not stated)
[1]
  GI50: 10.5 µM
  TGI: 24.9 µM
[2]
  GI50: 5.11 µM
  TGI: 18.6 µM
[3]
  GI50: 12.9 µM
  TGI: 33.6 µM
[4]
  GI50: 3.81 µM
  TGI: 20.3 µM
[5]
  GI50: 8.81 µM
  TGI: 22.6 µM
[6]
  GI50: 11.3 µM
  TGI: 26.8 µM
[7]
  GI50: 4.81 µM
  TGI: 22.7 µM
[8]
  GI50: 1.63 µM
  TGI: 3.51 µM
[9]
  GI50: 0.197 µM
  TGI: 5.83 µM
[10]
  GI50: 4.66 µM
  TGI: 18.2 µM

## CC(C)c1nc(N(C)S(C)(=O)=O)nc(-c2ccc(F)cc2)c1/C=C/[C@@H](O)C[C@@H](O)CC(=O)O
[1]
  GI50: 34.2 µM
  TGI: > 100 µM
[2]
  GI50: > 100 µM
  TGI: > 100 µM
[3]
  GI50: 51.9 µM
  TGI: > 100 µM
[4]
  GI50: > 100 µM
  TGI: > 100 µM
[5]
  GI50: > 100 µM
  TGI: > 100 µM
[6]
  GI50: 41.7 µM
  TGI: > 100 µM
[7]
  GI50: > 100 µM
  TGI: > 100 µM
[8]
  GI50: > 100 µM
  TGI: > 100 µM
[9]
  GI50: 18.5 µM
  TGI: > 77.5 µM
[10]
  GI50: > 100 µM
  TGI: > 100 µM

## NS(=O)(=O)c1ccc(N=Nc2c(O)[nH]c3ccc(C(=O)NCc4ccncc4)cc23)cc1
[1]
  GI50: > 25 µM
  TGI: > 25 µM
[2]
  GI50: > 25 µM
  TGI: > 25 µM
[3]
  GI50: > 25 µM
  TGI: > 25 µM
[4]
  GI50: > 25 µM
  TGI: > 25 µM
[5]
  GI50: > 25 µM
  TGI: > 25 µM
[6]
  GI50: > 25 µM
  TGI: > 25 µM
[7]
  GI50: > 25 µM
  TGI: > 25 µM
[8]
  GI50: > 25 µM
  TGI: > 25 µM
[9]
  GI50: > 25 µM
  TGI: > 25 µM
[10]
  GI50: > 25 µM
  TGI: > 25 µM

## CN(C)CCNC(=O)c1ccc(-c2nc3ccc4[nH]ncc4c3c3c2C2CCC3C2)cc1 (configuration not stated)
[1]
  GI50: 0.564 µM
  TGI: 6.91 µM
[2]
  GI50: 0.569 µM
  TGI: 4.19 µM
[3]
  GI50: 0.494 µM
  TGI: 2.62 µM
[4]
  GI50: 1.29 µM
  TGI: 9.4 µM
[5]
  GI50: 0.809 µM
  TGI: 2.75 µM
[6]
  GI50: 1.24 µM
  TGI: 7.22 µM
[7]
  GI50: 1.35 µM
  TGI: 4.6 µM
[8]
  GI50: 1.84 µM
  TGI: 5.64 µM
[9]
  GI50: 0.341 µM
  TGI: 1.14 µM
[10]
  GI50: 0.473 µM
  TGI: 5.16 µM

## c1cc(-c2nnc(SSc3ncnc4nc[nH]c34)o2)ccn1
[1]
  GI50: 4.07 µM
  TGI: > 100 µM
[2]
  GI50: 3.3 µM
  TGI: 23.8 µM
[3]
  GI50: 2.56 µM
  TGI: > 100 µM
[4]
  GI50: 0.351 µM
  TGI: > 100 µM
[5]
  GI50: 0.405 µM
  TGI: > 100 µM
[6]
  GI50: 3.48 µM
  TGI: > 100 µM
[7]
  GI50: 1.32 µM
  TGI: > 100 µM
[8]
  GI50: 43.7 µM
  TGI: > 100 µM
[9]
  GI50: 0.672 µM
  TGI: > 100 µM
[10]
  GI50: 3.38 µM
  TGI: > 100 µM

## O=[N+]([O-])c1nccn1CC(O)CN1CCCCC1 (configuration not stated)
[1]
  TGI: > 100 µM
[2]
  TGI: > 100 µM
[3]
  TGI: > 100 µM
[4]
  TGI: > 100 µM
[5]
  TGI: > 100 µM
[6]
  TGI: > 100 µM
[7]
  TGI: > 100 µM
[8]
  TGI: > 100 µM
[9]
  TGI: > 100 µM
[10]
  TGI: > 100 µM

## CC[C@@]1(OC(=O)CN)C(=O)OCc2c1cc1n(c2=O)Cc2c-1nc1cc3c(cc1c2CCl)OCO3
[1]
  GI50: < 0.01 µM
  TGI: 0.244 µM
[2]
  GI50: 0.761 µM
  TGI: 3.1 µM
[3]
  GI50: 0.762 µM
  TGI: 5.5 µM
[4]
  GI50: 0.0642 µM
[5]
  GI50: 0.0102 µM
[6]
  GI50: 0.113 µM
  TGI: 21.1 µM
[7]
  GI50: 0.0374 µM
  TGI: 0.597 µM
[8]
  GI50: 0.474 µM
  TGI: 20.5 µM
[9]
  GI50: < 0.0244 µM
[10]
  GI50: < 0.0196 µM
  TGI: 32.6 µM

## CCc1ccccc1NC(=O)/C=C/c1ccccc1
[1]
  TGI: > 100 µM
[2]
  TGI: > 100 µM
[3]
  TGI: > 100 µM
[4]
  TGI: > 100 µM
[5]
  TGI: > 100 µM
[6]
  TGI: > 100 µM
[7]
  TGI: > 100 µM
[8]
  TGI: > 100 µM
[9]
  TGI: > 100 µM
[10]
  TGI: > 100 µM

## COC(=O)C(CCC(=O)CCl)N1C(=O)c2ccccc2C1=O (configuration not stated)
[1]
  TGI: 13.9 µM
[2]
  TGI: 40.3 µM
[3]
  TGI: 32.4 µM
[4]
  TGI: 12.7 µM
[5]
  TGI: 14.8 µM
[6]
  TGI: 26.5 µM
[7]
  TGI: 20.7 µM
[8]
  TGI: 23.5 µM
[9]
  TGI: 29.3 µM
[10]
  TGI: 15.6 µM

## CCn1c(-c2cc3c([nH]c4ccccc43)c(-c3cccc(O)c3)n2)n[nH]c1=S
[1]
  GI50: 3.02 µM
  TGI: 10.1 µM
[2]
  GI50: 7.65 µM
  TGI: 24.3 µM
[3]
  GI50: 2.21 µM
  TGI: 9.17 µM
[4]
  GI50: 1.88 µM
  TGI: > 100 µM
[5]
  GI50: 2.57 µM
  TGI: 11.6 µM
[6]
  GI50: 2.77 µM
  TGI: 13.3 µM
[7]
  GI50: 2.5 µM
  TGI: 8.78 µM
[8]
  GI50: 2.63 µM
  TGI: 12.3 µM
[9]
  GI50: 1.26 µM
  TGI: 4.85 µM
[10]
  GI50: 4.15 µM
  TGI: 18.9 µM

## COC(=O)C12CC(NC(=O)c3csc([C@@H](C[C@H](C(C)C)N(C)C(=O)[C@@H](NC(=O)[C@H]4CCCCN4C)C4CC4)OC(C)=O)n3)(C1)C2
[1]
  GI50: 0.123 µM
  TGI: > 16.7 µM
[2]
  GI50: 0.00972 µM
  TGI: 0.201 µM
[3]
  GI50: 0.0169 µM
  TGI: > 16.7 µM
[4]
  GI50: 0.00549 µM
  TGI: > 16.7 µM
[5]
  GI50: 0.00988 µM
  TGI: > 5.28 µM
[6]
  GI50: 0.0366 µM
  TGI: > 16.7 µM
[7]
  GI50: 0.00674 µM
  TGI: > 16.7 µM
[8]
  GI50: 0.148 µM
  TGI: > 16.7 µM
[9]
  GI50: 0.00548 µM
  TGI: > 16.7 µM
[10]
  GI50: 0.0114 µM
  TGI: > 16.7 µM

## C#CCNC(=S)N/N=C(\C)c1ccccn1
[1]
  GI50: 0.313 µM
  TGI: > 100 µM
[2]
  GI50: 0.184 µM
  TGI: > 100 µM
[3]
  GI50: 9.84 µM
  TGI: > 100 µM
[4]
  GI50: 0.0751 µM
  TGI: > 100 µM
[5]
  GI50: 0.454 µM
  TGI: 5.15 µM
[6]
  GI50: 0.393 µM
  TGI: > 100 µM
[7]
  GI50: 0.201 µM
  TGI: 1.7 µM
[8]
  GI50: 2.32 µM
  TGI: > 100 µM
[9]
  GI50: 0.943 µM
  TGI: > 23.7 µM
[10]
  GI50: 0.341 µM
  TGI: > 100 µM

## O=C(O)/C=C\C(=O)Nc1ccccn1
[1]
  TGI: > 100 µM
[2]
  TGI: > 100 µM
[3]
  TGI: > 100 µM
[4]
  TGI: > 100 µM
[5]
  TGI: > 100 µM
[6]
  TGI: > 100 µM
[7]
  TGI: > 100 µM
[8]
  TGI: > 100 µM
[9]
  TGI: > 100 µM
[10]
  TGI: > 100 µM
